Source: publication PMC9820345, “Metal Complexes of a 5-Nitro-8-Hydroxyquinoline-Proline Hybrid with Enhanced Water Solubility Targeting Multidrug Resistant Cancer Cells” (International Journal of Molecular Sciences, 2022)

Tests used:
[1] = Complex formation kinetics (UV-vis, tandem cuvette); format: physicochemical; conditions: 50 μM triaqua complex + 50 μM ligand
Procedure: The complex formation kinetics for the RhCp* and RuCym complexes was also assayed and compared at pH 1 and 4 (Figure S20). UV-vis spectral changes were followed in time after the triaqua complex [M(arene)(H2O)3]^2+ (50 μM) and the ligand (50 μM) were mixed in a tandem cuvette. The equilibrium was reached much faster in the case of the RhCp* complex (~5 min at pH 1, ~1 min at pH 4), as compared to the RuCym complex (~7 h at pH 1, ~45 min at pH 4).

[2] = Stability of the complexes in RPMI medium (UV-vis, 1H NMR); format: physicochemical; conditions: compared with serum
Source text: The stability of the RhCp* and RuCym complexes of HQNO2-L-Pro was also monitored in Roswell Park Memorial Institute (RPMI) medium used for the in vitro cell studies (in the case of Colo cells), and in blood serum using UV-vis and ^1H NMR spectroscopy. […] Despite these changes, the dissociation of the complexes is not likely as the liberation of the unbound ligand was not observed; thus, the complexes most probably form ternary complexes with the components of the serum or the medium. In order to further study the reactivity of these complexes with bioligands, their interaction with human serum albumin (HSA) and selected oligopeptides (also used as binding models of HSA) was assayed.

Ac-Phe-His-Ala-NH2 (FHA) = assay: Mixed-ligand adduct formation with His-containing oligopeptide FHA; format: binding
Procedure: (§1) According to numerous papers on the binding of half-sandwich organometallic complexes to HSA [35, 36], surface exposed histidine (His) side chains are the most feasible coordinating moieties. […] The equilibrium could be reached within 3–10 min in the case of the RhCp* complex on the basis of the UV-vis spectral changes (Figure S28), and similar conditional constants (logK’) were computed with these model compounds for the formation of mixed-ligand RhCp* complexes; namely logK’ 5.00 ± 0.1, 4.4 ± 0.1, 5.1 ± 0.1 were obtained in the case of FHA, AHA, and mim, respectively. […] In the case of the oligopeptides, formation of isomers was detected which might be explained by the existence of two chiral centers, namely the metal ion and His-CHα. The adduct formation of the RuCym complex with mim was quantitative, hindering the determination of the logK’ value (meaning logK’ > 5.5). […]
(§2) An Agilent Cary 8454 diode array spectrophotometer (Santa Clara, CA, USA) was used to obtain UV-vis spectra in the wavelength range 200–1000 nm, while spectra were recorded for the Fe(II)-containing samples using an Avantes (Avantes B.V., Apeldoorn, The Nederlands) AvaSpec-ULS2048CL-EVO spectrometer with an AvaLight-DHc light source and FDP-7UVIR200-2-VAR transmission dip probe. […]

Ac-Ala-His-Ala-NH2 (AHA) = assay: Mixed-ligand adduct formation with His-containing oligopeptide AHA; format: binding
Procedure: as §1, §2

[3] = Mixed-ligand adduct formation with N-methylimidazole; format: binding; conditions: mim, pH 7.4
Procedure: as §1, §2

HSA site I (Trp-214) = molecular target: T1, HSA site I (Trp-214) (Homo sapiens, UniProt P02768); assay: HSA Trp-214 quenching by fluorometry (site I); format: binding; conditions: 1 µM HSA, pH 7.4 (PBS'), 24 h incubation
T1 construct: purchased Sigma-Aldrich (Darmstadt, Germany) A8763
T1 sequence (P02768 25-609): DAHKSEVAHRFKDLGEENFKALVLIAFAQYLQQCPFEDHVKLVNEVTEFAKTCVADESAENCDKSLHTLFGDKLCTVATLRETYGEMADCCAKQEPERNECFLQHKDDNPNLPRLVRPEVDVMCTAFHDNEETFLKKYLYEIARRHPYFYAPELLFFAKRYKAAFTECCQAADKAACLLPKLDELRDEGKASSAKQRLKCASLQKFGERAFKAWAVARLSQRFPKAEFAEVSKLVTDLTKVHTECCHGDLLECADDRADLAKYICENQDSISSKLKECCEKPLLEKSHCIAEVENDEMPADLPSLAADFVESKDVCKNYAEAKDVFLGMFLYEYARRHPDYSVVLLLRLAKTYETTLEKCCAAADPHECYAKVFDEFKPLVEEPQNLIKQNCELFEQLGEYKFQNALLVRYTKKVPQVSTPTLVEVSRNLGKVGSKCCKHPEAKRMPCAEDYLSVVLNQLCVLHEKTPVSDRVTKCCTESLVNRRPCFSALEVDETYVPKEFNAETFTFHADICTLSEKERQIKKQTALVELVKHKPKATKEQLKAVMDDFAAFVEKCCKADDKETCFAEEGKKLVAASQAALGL
Procedure: Therefore, tryptophan (Trp-214) quenching and dansylglycine (DG) site marker displacement experiments were conducted by fluorometry to obtain information about the binding at sites I and II, respectively, using the same approach reported in our former paper. A representative spectral series is shown in Figure 9a for the Trp-214 quenching experiment, upon the addition of the RhCp*–HQNO2-L-Pro complex and the computed binding constants (logKQ’ and logKDG’) which can be found in Figure 9b, in addition to the corresponding data for the HQCl-L-Pro complexes.
A Fluoromax (Horiba Jobin Yvon, Longjumeau, France) spectrofluorometer was utilized for fluorescence measurements using a 1 cm × 1 cm quartz cuvette. Samples contained 1 µM HSA or DG and 1 µM HSA at pH 7.4 (PBS’), and the complex concentration was varied between 0 and 53 µM. The measurements were carried out on individual samples. Excitation wavelengths were 295 nm for Trp-214 quenching, and 335 nm for the DG displacement studies, respectively. The calculated conditional stability constants for HSA–complex species were obtained using the computer program HypSpec. Calculations always were based on data obtained from at least two independent measurements. Self-absorbance and inner filter effect had to be taken into account, and corrections were made as was described in our former works.

[4] = pH 7.4, 1H NMR peak integrals, 24 h incubation

SMILES	time to reach equilibrium of complex formation ([1]; pH 1)	time to reach equilibrium of complex formation ([1]; pH 4)	spectral changes on incubation in RPMI medium [2]	conditional constant logK' of adduct (Ac-Phe-His-Ala-NH2 (FHA); [4])	conditional constant logK' of adduct (Ac-Ala-His-Ala-NH2 (AHA); [4])	conditional constant logK' of adduct ([3]; 1H NMR, 24 h incubation, adduct formation quantitative)	conditional constant logK' of mixed-ligand complex (Ac-Phe-His-Ala-NH2 (FHA); pH 7.4, UV-vis)	conditional constant logK' of mixed-ligand complex (Ac-Ala-His-Ala-NH2 (AHA); pH 7.4, UV-vis)	conditional constant logK' of mixed-ligand complex ([3]; UV-vis)	quenching constant logKQ' (HSA site I (Trp-214))	Kd (HSA site I (Trp-214); read-out: quenching constant logKQ' (converted)) [µM]
Cc1ccc(C(C)C)cc1.O=C(O)[C@@H]1CCC[NH+]1Cc1cc([N+](=O)[O-])c2ccc[n+]3c2c1[O][Ru-]3[Cl].[Cl-] [RuCym-HQNO2-L-Pro, [RuCym(HQNO2-L-Pro)Cl]Cl]	~ 7 h	~ 45 min	more significant	3.9 ± 0.2	5.1 ± 0.2	> 5.5					
CC1=C(C)[C](C)([Rh]([Cl])[O]c2c(C[NH+]3CCC[C@H]3C(=O)O)cc([N+](=O)[O-])c3cccnc23)C(C)=C1C.[Cl-] [RhCp*-HQNO2-L-Pro, [RhCp*(HQNO2-L-Pro)Cl]Cl]	~ 5 min	~ 1 min	more significant				5.00 ± 0.1	4.4 ± 0.1	5.1 ± 0.1	5.1	
O=C(O)[C@@H]1CCCN1Cc1cc([N+](=O)[O-])c2cccnc2c1O [HQNO2-L-Pro, (2S)-1-((8-hydroxy-5-nitroquinolin-7-yl)methyl)pyrrolidin-1-ium-2-carboxylate]											16.6
